Reference: US8496928B2, “Method for preventing and treating cardiovascular diseases with BRCA1” (priority 2008, dated 2013)

Assays:
HUVECs = experiment: HUVEC apoptosis assays (Annexin V-FITC/PI flow cytometry, cleaved caspase-3, DNA fragmentation); type: cell-based, human; details: ad-null infected HUVECs, TNFα 20 ng/ml 24 hours
Experimental: In FIG. 23A ad-null or ad-BRCA1 infected HUVECs were treated with TNFα (20 ng/ml) for 24 hours. Cells were harvested for Annexin V-FITC and Propidium Iodide staining followed by flow cytometry. Total apoptotic cells are shown as mean±SD (n=3 in triplicate, **p<0.01). In FIG. 23B, HUVECs were treated with either siBRCA1 (10 nM) or scrambled siRNA (10 nM) for 24 hours. BRCA1-silenced and control HUVECs were treated with TNFα (20 ng/ml), stained with Annexin V-FITC and Propidium Iodide, and analyzed by flow cytometry. The percentage of total apoptotic cells are presented as mean±SD (n=3 in triplicate, **p<0.01). […] Data was calculated as the percentage of total apoptotic cells and presented as mean±SD (n=3 in triplicate, **p<0.01).
FIG. 31 is a bar graph showing protection of HUVECs against doxorubicin-induced apoptosis by BRCA1 overexpression. […] Data was calculated as the percentage of total apoptotic cells and presented as mean±SD (n=3 in triplicate, *p<0.01 vs. Ad-null group, †p<0.01 vs. Ad-null+2 μM Dox group). […]
Human umbilical vein endothelial cells (HUVECs) were purchased from Cambrex and cultured in MCDB-131 complete medium (Cambrex Corporation). […] These concentrations were determined from pilot optimization studies. […]
Apoptotic and necrotic cell death were assessed in ad-BRCA1 and ad-null infected HUVECs by flow cytometry coupled with the BD Annexin V-FITC Apoptosis Detection Kit. […]

[1] = test system: VCAM1, ICAM1 and E-selectin; experiment: VCAM1, ICAM1 and E-selectin expression in HUVECs, real-time PCR and western blot; type: cell-based, human; details: ad-null treated HUVECs, TNFα 20 ng/ml 24 hours
Experimental: In FIG. 24A ad-null or ad-BRCA1 infected cells were trypsinized and seeded in the presence and absence of TNFα (20 ng/ml) on coated inserts and a colorimetric assay was performed after 24 hours. Migration was calculated as a percentage of ad-null controls. (n=4, **p<0.01). In FIG. 24B, ad-null or ad-BRCA1 infected HUVECs were seeded onto matrigel in the presence or absence of TNFα (20 ng/ml). Images were taken 5 hours after seeding (original magnification 20×). In FIG. 24C data was semi-quantitatively analyzed by counting tubular structures in four fields per group. Data is presented as mean±SD (n=3 in triplicate, *p<0.05, **p<0.01). HUVECs infected with ad-null or ad-BRCA1 were treated for 24 hours with TNFα (20 ng/ml). VCAM1 (FIG. 24D, FIG. 24E), ICAM1 (FIG. 24F, FIG. 24G) and E-selectin (FIG. 24H, FIG. 24I) protein and transcript expression were determined in cell extracts via western blots and real-time PCR, respectively. GAPDH was used as a loading control for western blots and as a housekeeping gene for real-time PCR. Data are expressed as mean±SD (n=3, **p<0.01).
Western blot analysis was performed according to standard procedures. Proteins from whole cell lysates of HUVECs were resolved on SDS-polyacrylamide gels and transferred to nitrocellulose membranes (Bio-Rad). Membranes were probed with primary antibodies from Santa Cruz (BRCA1), Cell Signaling (p53, p21, Ser1177-phospho-eNOS, Akt, Ser473-phospho-Akt, cleaved caspase-3), Chemicon (GADD45a, GAPDH) and BD (eNOS). Immunoblots were incubated with the appropriate horseradish peroxidase-associated secondary antibodies before signals were visualized by chemiluminescence via the ECL detection system (GE Healthcare).
Total RNA extracted from HUVECs were reverse transcribed for quantitative assessment of VCAM1, ICAM1, E-selectin and VEGFa expressions by real-time PCR using the primer pairs listed in Table 4.
PCR reactions were performed on the ABI PRISM 7900HT system (Applied Biosystems) with GAPDH acting as the housekeeping control.

## TNFα
HUVECs
  apoptosis: significant apoptosis
[1]
  E-selectin transcript upregulation: 200 times
  ICAM1 transcript upregulation: 400 times
  VCAM1 transcript upregulation: 1500 times
